In general, IC50 refers to the concentration that inhibits the measured activity by half.

In one experiment the target is KRAS (G12D)::SOS1 (Homo sapiens (Human), UniProt P01116, G12D). Description: KRAS::SOS1 AlphaScreen binding assay, KRAS G12D. In a few lines:
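AlphaScreen measurement of compound disruption of biotinylated, GDP-loaded KRAS 1-169 (10 nM; G12C 7.5 nM) binding to GST-SOS1 564-1049 (5 nM with G12D/G12C, 10 nM otherwise), with 10 μM GDP in PBS/0.1% BSA/0.05% Tween 20. Timing was 30 min compound preincubation, then 60 min with beads at room temperature; top concentration 100 μM, 4-parameter IC50.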
On the technique in general: Alpha assays give light when donor and acceptor beads are brought close together.

A further experiment deals with AsPC-1 cells. Description: AsPC-1 CTG proliferation assay (120 h) (pancreatic cancer, G12D). The experiment is classed as cell-based. To be noted: Homo sapiens, ASPC1. The method, boiled down:
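CellTiter-Glo luminescence, normalised to DMSO wells, measured viability after 120 h compound exposure. Cells were AsPC-1 pancreatic cancer (G12D) plated at 2000 per well in RPMI/10% FCS the day before dosing. IC50 derived by four-parameter regression.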

The subject of the next experiment is SK-CO-1 cells. Description: SK-CO-1 CTG proliferation assay (120 h) (CRC, G12V). In kind it is cell-based. To be noted: Homo sapiens; SK-CO-1 cells (CRC, G12V), CTG 120 h. The method, boiled down: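 Compound exposure lasted 120 h in KRAS G12V SK-CO-1 cells seeded overnight at 500 cells/well in 10% FCS EMEM. CellTiter-Glo RLU normalised to DMSO wells gave percent viability, and a four-parameter model fit yielded IC50.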

KRAS (G12D)::SOS1, sequence (P01116 other isoform, or with tags, fused parts or gaps G12D): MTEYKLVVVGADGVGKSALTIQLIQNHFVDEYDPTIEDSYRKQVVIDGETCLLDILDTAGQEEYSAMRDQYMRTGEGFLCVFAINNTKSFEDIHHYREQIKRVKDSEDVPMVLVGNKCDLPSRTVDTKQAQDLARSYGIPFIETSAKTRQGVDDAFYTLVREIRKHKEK

As to `CCN1CCN(c2cc(O[C@@H](C)[C@@H]3C[C@@H](F)CN3C)nc(-c3noc4c3CCC[C@@]43CCCc4sc(N)c(C#N)c43)n2)CC12CC2` [II-185], the figures for the IC50 on KRAS (G12D)::SOS1, with AsPC-1 cells and in the experiment with SK-CO-1 cells were 1 nM, 190 nM and 1290 nM, respectively.
The like results for `CO[C@H]1CCN(C)[C@@H]1[C@H](C)Oc1cc(-n2ccc(C(N)=O)n2)nc(-c2noc3c2CCC[C@@]32CCCc3sc(N)c(C#N)c32)n1` [II-201] were, in that order, 2 nM, 651 nM and 9 nM.
The like results for `C[C@H](Oc1cc(-n2cc3c(n2)CN(C)C3)nc(-c2noc3c2CCC[C@@]32CCCc3sc(N)c(C#N)c32)n1)[C@@H]1CCCN1C` [II-174] were, in that order, 1 nM, 103 nM and 385 nM.
For `C[C@H](Oc1cc(N2CCNC[C@@]23CCOC3)nc(-c2onc3c2CCC[C@@]32CCCc3sc(N)c(C#N)c32)n1)[C@@H]1CCCN1C` [I-13], the IC50 at KRAS (G12D)::SOS1 came out at 1 nM; with AsPC-1 cells, 1550 nM; in the experiment on SK-CO-1 cells, 2160 nM.
As to `C[C@H](Oc1cc(N2CCOC2=O)nc(-c2noc3c2CCC[C@@]32CCCc3sc(N)c(C#N)c32)n1)[C@@H]1CCCN1C` [II-143], the figures for the half-inhibitory concentration (IC50) on KRAS (G12D)::SOS1, with AsPC-1 cells and with SK-CO-1 cells were 1 nM, 1510 nM and 9 nM, respectively.
For the compound `COc1c(O[C@@H](C)[C@@H]2CCCN2C)nc(-c2noc3c2CCC[C@@]32CCCc3sc(N)c(C#N)c32)nc1-n1ccc(C(N)=O)n1` [II-159], the half-maximal inhibitory concentration (IC50) at KRAS (G12D)::SOS1 worked out at 6 nM; with AsPC-1 cells it was 1890 nM; in the experiment with SK-CO-1 cells it was 131 nM.
On the same counts, the results for `CO[C@@H]1C[C@@H]([C@H](C)Oc2cc(N3CCN(C)C4(COC4)C3)nc(-c3noc4c3CCC[C@@]43CCCc4sc(N)c(C#N)c43)n2)N(C)C1` [II-153] are 2 nM, 577 nM and 872 nM.
On the same counts, the results for `C[C@H](Oc1cc(N2C[C@@H]3[C@@H](N)[C@@H]3C2)nc(-c2noc3c2CCC[C@@]32CCCc3sc(N)c(C#N)c32)n1)[C@@H]1CCCN1C` [II-167] are 2 nM, 4230 nM and 1340 nM.
With `C[C@H](Oc1cc(N2CCN(C)C3(CC3)C2)nc(-c2noc3c2CCC[C@@]32CCCc3sc(N)c(C#N)c32)n1)[C@@H]1C[C@@H](F)CN1C` [II-149], the IC50 at KRAS (G12D)::SOS1 was 1 nM; in the experiment on AsPC-1 cells, 257 nM; with SK-CO-1 cells, 1980 nM.
Take `C[C@H](Oc1cc(-n2cc(C(=O)N(C)C)nn2)nc(-c2noc3c2CCC[C@@]32CCCc3sc(N)c(C#N)c32)n1)[C@@H]1CCCN1C` [II-132]: the IC50 on KRAS (G12D)::SOS1 is 3 nM; with AsPC-1 cells it was 5110 nM; in the experiment with SK-CO-1 cells, 18 nM.
For `C[C@H](NC(=O)c1ccn(-c2cc(O[C@@H](C)[C@@H]3CCCN3C)nc(-c3noc4c3CCC[C@@]43CCCc4sc(N)c(C#N)c43)n2)n1)c1ccccn1` [II-191], the results for the 50% inhibitory concentration (IC50) at KRAS (G12D)::SOS1, in the experiment with AsPC-1 cells and in the experiment with SK-CO-1 cells were 1 nM, 425 nM and 3 nM, respectively.
The like results for `C[C@H](Oc1cc(-n2ccc(C(=O)N(C)C3COC3)n2)nc(-c2noc3c2CCC[C@@]32CCCc3sc(N)c(C#N)c32)n1)[C@@H]1CCCN1C` [II-194] were, in that order, 1 nM, 411 nM and 11 nM.
With `C[C@H](Oc1cc(-c2cccc(C(N)=O)c2)nc(-c2noc3c2CCC[C@@]32CCCc3sc(N)c(C#N)c32)n1)[C@@H]1CCCN1C` [II-133], the IC50 at KRAS (G12D)::SOS1 is 6 nM; with AsPC-1 cells, 2700 nM; in the experiment with SK-CO-1 cells, 89 nM.
For `CO[C@H]1CCN(C)[C@@H]1[C@H](C)Oc1cc(-n2ccc(C(=O)N[C@@H](C)c3ccccn3)n2)nc(-c2noc3c2CCC[C@@]32CCCc3sc(N)c(C#N)c32)n1` [II-196], the IC50 at KRAS (G12D)::SOS1 was 1 nM; with AsPC-1 cells it was 248 nM; in the experiment with SK-CO-1 cells, 4 nM.
The like results for `C[C@H](Oc1cc(-n2ccc(-c3cn([C@@H]4CCOC4)nn3)n2)nc(-c2noc3c2CCC[C@@]32CCCc3sc(N)c(C#N)c32)n1)[C@@H]1CCCN1C` [II-211] were, in that order, 1 nM, 297 nM and 4 nM.
On to `C[C@H](Oc1cc(N2CCNC3(COC3)C2)nc(-c2noc3c2CCC[C@@]32CCCc3sc(N)c(C#N)c32)n1)[C@@H]1C[C@@H](F)CN1C` [II-150], for which the figures for the IC50 at KRAS (G12D)::SOS1, with AsPC-1 cells and in the experiment on SK-CO-1 cells were 1 nM, 27 nM and 325 nM, respectively.
On the same counts, the results for `C[C@H](Oc1cc(-n2cc3c(n2)CCN(C)C3)nc(-c2noc3c2CCC[C@@]32CCCc3sc(N)c(C#N)c32)n1)[C@@H]1CCCN1C` [II-141] are 2 nM, 244 nM and 436 nM.
Consider `CO[C@H]1CCN(C)[C@@H]1[C@H](C)Oc1cc(N2CCNC3(CC3)C2)nc(-c2noc3c2CCC[C@@]32CCCc3sc(N)c(C#N)c32)n1` [II-184], for which the IC50 at KRAS (G12D)::SOS1 turned out to be 1 nM; with AsPC-1 cells, 8 nM; with SK-CO-1 cells, 249 nM.
On to `C[C@H](Oc1cc(-n2ccc(-c3cn([C@H]4CCOC4)nn3)n2)nc(-c2noc3c2CCC[C@@]32CCCc3sc(N)c(C#N)c32)n1)[C@@H]1CCCN1C` [II-212], for which the IC50 was 1 nM at KRAS (G12D)::SOS1, 170 nM in the experiment with AsPC-1 cells and 4 nM with SK-CO-1 cells.
The like results for `C[C@H](Oc1cc(-n2cc3ccn(C4CCOCC4)c(=O)c3n2)nc(-c2noc3c2CCC[C@@]32CCCc3sc(N)c(C#N)c32)n1)[C@@H]1CCCN1C` [II-206] were, in that order, 1 nM, 194 nM and 11 nM.
Consider `C[C@H](Oc1cc(-n2cc(-c3cncs3)nn2)nc(-c2noc3c2CCC[C@@]32CCCc3sc(N)c(C#N)c32)n1)[C@@H]1CCCN1C` [II-125], for which the IC50 is 6 nM at KRAS (G12D)::SOS1, 1370 nM in the experiment on AsPC-1 cells and 121 nM in the experiment with SK-CO-1 cells.
The like results for `C[C@H](Oc1cc(-c2ccn(C[C@H]3CCOC3)n2)nc(-c2noc3c2CCC[C@@]32CCCc3sc(N)c(C#N)c32)n1)[C@@H]1CCCN1C` [II-129] were, in that order, 3 nM, 2080 nM and 66 nM.
On the same counts, the results for `CC(C)[C@@H]1CN(c2cc(O[C@@H](C)[C@@H]3CCCN3C)nc(-c3noc4c3CCC[C@@]43CCCc4sc(N)c(C#N)c43)n2)CCN1` [II-166] are 1 nM, 1280 nM and 551 nM.
Take `C[C@H](Oc1cc(-n2cc3ccn([C@@H]4CCOC4)c(=O)c3n2)nc(-c2noc3c2CCC[C@@]32CCCc3sc(N)c(C#N)c32)n1)[C@@H]1CCCN1C` [II-203]: the figures for the IC50 on KRAS (G12D)::SOS1, with AsPC-1 cells and in the experiment with SK-CO-1 cells were 2 nM, 483 nM and 12 nM, respectively.
On to `CC(C)N1CCCN(c2cc(-n3ccnc3)nc(-c3noc4c3CCC[C@@]43CCCc4sc(N)c(C#N)c43)n2)[C@@H](C)C1` [II-169], for which the IC50 on KRAS (G12D)::SOS1 came to 9 nM; in the experiment on AsPC-1 cells, 3730 nM; with SK-CO-1 cells it was 316 nM.
On the same counts, the results for `C[C@H](Oc1cc(N2C[C@H](C)N(C)[C@@H](C)C2)nc(-c2noc3c2CCC[C@@]32CCCc3sc(N)c(C#N)c32)n1)[C@@H]1CCCN1C` [II-173] are 1 nM, 1210 nM and 805 nM.
On to `CO[C@@H]1C[C@@H]([C@H](C)Oc2cc(N3CCN(C)C4(CC4)C3)nc(-c3noc4c3CCC[C@@]43CCCc4sc(N)c(C#N)c43)n2)N(C)C1` [II-152], for which the IC50 at KRAS (G12D)::SOS1 turned out to be 3 nM; with AsPC-1 cells, 526 nM; with SK-CO-1 cells, 955 nM.

The values above are taken from patent US20240174690A1, “ANNULATED 2-AMINO-3-CYANO THIOPHENES AND DERIVATIVES FOR THE TREATMENT OF CANCER” (BOEHRINGER INGELHEIM INTERNATIONAL GMBH, priority 2021, published 2024).
